This note sets out measurements from patent US5059624A, “Guanidine derivatives having hypotensive activity, composition containing them and process for obtaining them” (Consiglio Nazionale Delle Ricerche, priority 1988, dated 1991).

Read-outs that look alike come from different tables or passages of the source.

Data set [1] has as its system male Wistar rats. Nature of the data set: Comparison with known active ingredients in male Wistar rats under sodium thiopental anaesthesia, rapid i.v. or 5 min infusion. In kind it is in vivo, rat (male Wistar). The note with it: for Δ AP DIASTOLIC / Δ AP SYSTOLIC / Δ HR / Δ dp/dt: maximum response; for general effects on the various haemodynamic parameters (in words): rat. The protocol: In order to compare the activity of the compounds of the present invention to that of the products of the prior art, various doses of known anti-hypertensive, hypotensive and vasoactive drugs were administered to male Wistar rats under general anaesthesia by sodium thiopental (50 mg/kg, i.p.). The administration was effected through "rapid" i.v. route or through intravenous infusion (inf.) for a time of 5 minutes.
The dose of each product is referred to the base, and the volumes injected were of 100 mcl in case of i.v. administration and […] total (0.9% sodium chloride solution) in case of infusion. The various parameters were evaluated in the same way as in the preceding experiments.

The nature of data set [2]: Lethal dose 50 (LD50) through i.p. route in mice. The note with it: mouse, in vivo, ip. The protocol: The lethal dose 50 (LD50) of guanido-I through i.p. route in mice turned out to be 57 mg±3.6 per kg.
The lethal dose 50 (LD50) of the diguanido-II through i.p. route in mice, turned out to be 7 mg±0.6 per kg.

Data set [3] deals with male Wistar rats.
Procedure: In order to check its activity, diguanido-II was dissolved in a 0.9 % sodium chloride solution and administered through "rapid" i.v. route in male Wistar rats, under general anaesthesia obtained by means of 10% ethyl urethan (i ml/hg).
The active ingredients called guanido-III, -IV, -V, as well as agmatine and galegine, were also tested, after having been administered through "rapid" i.v. route in male Wistar rats (weighing average 280±5 g) under general anaesthesia obtained by means of 10% ethyl uretan (1 ml/hg, i.p.). The general experimental conditions were exactly the same as previously mentioned for guanido-I and diguanido-II, so that the cardiovascular and respiratory effects could be compared.
The parameters measured are as follows: systolic and diastolic systemic arterial pressure (AP), heart rate (HR), maximum rate of increase in the left ventricular isovolumetric pressure (dp/dt), respiratory frequency (RF) and tidal volume (TV). The doses (in μg/kg body weight, referred to the active substance) varied from 50 μg/kg to 6,400 μg/kg (ratio=2.0); in some cases higher does have been employed.

As for `NCCc1c[nH]cn1` [Histamine], in the data set with male Wistar rats [1] (5 mcg/kg, i.v.), the “Δ AP DIASTOLIC” value is -28 ± 3 mmHg, the “Δ AP SYSTOLIC” value is listed as -30 ± 3 mmHg, the “Δ HR” value is listed as -7 ± 1 beats/min and the Δ dp/dt is -1314 ± 180 mmHg/sec.

On to `COC(=O)[C@H]1[C@H]2C[C@@H]3c4[nH]c5cc(OC)ccc5c4CCN3C[C@H]2C[C@@H](OC(=O)c2cc(OC)c(OC)c(OC)c2)[C@@H]1OC` [Reserpine], for which, in the data set with male Wistar rats [1] (5 mg/kg, inf.), the “Δ AP DIASTOLIC” value was -24 ± 5 mmHg, the “Δ AP SYSTOLIC” value is recorded as -31 ± 6 mmHg, the “Δ HR” value is -47 ± 9 beats/min and the Δ dp/dt is given as -1580 ± 134 mmHg/sec. The “general effects on the various haemodynamic parameters (in words)” value in the data set with male Wistar rats [1] is on record as “general "depressive" effects”.

Regarding `COc1ccc(C=CC(=O)NCCCCNC(=N)NCC=C(C)C)cc1OC` [guanido-I], in data set [2], the LD50 was determined as 57 mg/kg. Moreover, in the data set with male Wistar rats [3] (50 μg/kg i.v.), the “Δ AP DIAST” value is listed as -5 ± 1 mmHg, the “Δ AP SYST” value is recorded as -4 ± 2 mmHg, the “Δ HR” value is given as “+8 ± 3 beats/min” and the “Δ RF” value is listed as “+6 ± 2 acts/min”. Also, the Δ dp/dt entry in the data set on male Wistar rats [3] (50 μg/kg i.v.) was “+52 ± 8 mmHg/sec”. Moreover, in the data set on male Wistar rats [3] (100 μg/kg i.v.), the “Δ AP DIAST” value is -6 ± 2 mmHg, the “Δ AP SYST” value is -6 ± 2 mmHg, the “Δ HR” value is reported as “+10 ± 1 beats/min” and the “Δ RF” value was “+9 ± 4 acts/min”. Also, the Δ dp/dt entry in the data set with male Wistar rats [3] (100 μg/kg i.v.) is listed as “+141 ± 25 mmHg/sec”. For the same molecule, in the data set on male Wistar rats [3] (200 μg/kg i.v.), the “Δ AP DIAST” value was -10 ± 2 mmHg, the “Δ AP SYST” value is -11 ± 3 mmHg, the “Δ HR” value is listed as “+13 ± 2 beats/min” and the “Δ RF” value is on record as “+12 ± 2 acts/min”. Also, in the data set with male Wistar rats [3] (200 μg/kg i.v.), the Δ dp/dt entry is “+1284 ± 78 mmHg/sec”. Further, in the data set on male Wistar rats [3] (400 μg/kg i.v.), the “Δ AP DIAST” value was -14 ± 3 mmHg, the “Δ AP SYST” value was -15 ± 4 mmHg, the “Δ HR” value is on record as “+14 ± 5 beats/min” and the “Δ RF” value was “+16 ± 3 acts/min”. Besides, in the data set with male Wistar rats [3] (400 μg/kg i.v.), the Δ dp/dt entry was “+1712 ± 107 mmHg/sec”. In the data set on male Wistar rats [3] (800 μg/kg i.v.), the “Δ AP DIAST” value was -15 ± 3 mmHg, the “Δ AP SYST” value was -17 ± 3 mmHg, the “Δ HR” value is given as “+18 ± 4 beats/min” and the “Δ RF” value was “+25 ± 6 acts/min”. In addition, the Δ dp/dt entry with male Wistar rats [3] (800 μg/kg i.v.) is “+2140 ± 263 mmHg/sec”. Moreover, in the data set on male Wistar rats [3] (1600 μg/kg i.v.), the “Δ AP DIAST” value is listed as -18 ± 4 mmHg, the “Δ AP SYST” value is given as -21 ± 6 mmHg, the “Δ HR” value is “+22 ± 3 beats/min” and the “Δ RF” value was “+23 ± 9 acts/min”. For the same molecule, the Δ dp/dt result with male Wistar rats [3] (1600 μg/kg i.v.) is reported as “+2996 ± 104 mmHg/sec”. Also, in the data set with male Wistar rats [3] (3200 μg/kg i.v.), the “Δ AP DIAST” value is listed as -29 ± 4 mmHg, the “Δ AP SYST” value was -25 ± 5 mmHg, the “Δ HR” value is reported as “+25 ± 8 beats/min” and the “Δ RF” value is given as “+26 ± 7 acts/min”. In the data set on male Wistar rats [3] (3200 μg/kg i.v.), the Δ dp/dt entry is reported as “+2984 ± 362 mmHg/sec”. Also, in the data set on male Wistar rats [3] (6400 μg/kg i.v.), the “Δ AP DIAST” value is on record as -29 ± 2 mmHg, the “Δ AP SYST” value is listed as -34 ± 4 mmHg, the “Δ HR” value is given as “+20 ± 4 beats/min” and the “Δ RF” value is “+29 ± 5 acts/min”. The Δ dp/dt result in the data set with male Wistar rats [3] (6400 μg/kg i.v.) is recorded as “+3074 ± 441 mmHg/sec”. In the data set with male Wistar rats [3] (i.v., 50-6400 μg/kg, rat), the “effect on AP (in words)” value is reported as “lowers the value of AP according to a linear dependence on the dose”; the “effect on HR, dp/dt and RF (in words)” value is “causes an increase in the values of HR, dp/dt and RF”. In the data set with male Wistar rats [3] (i.v., rat), the “cardiovascular and respiratory effects (in words)” value is “giving hypotensive responses while increasing heart rate and inotropism as well as respiratory rate”; the “changes in the tidal volume (TV) (in words)” value was “a linear increase has been observed with the doses”; the “correlation with peripheral adrenergic receptors (α1-α2; β1-β2) (in words)” value was “do not seem to be correlated to significative actions of the active ingredient at the level of the peripheral adrenergic receptors”.

With `NC[C@H](O)c1ccc(O)c(O)c1` [Noradrenaline], in the data set with male Wistar rats [1] (1 mcg/kg, i.v.), the “Δ AP DIASTOLIC” value is recorded as “+31 ± 2 mmHg”, the “Δ AP SYSTOLIC” value was “+44 ± 3 mmHg”, the “Δ HR” value is listed as “+14 ± 4 beats/min” and the Δ dp/dt entry is given as “+4314 ± 415 mmHg/sec”.

Consider `COc1ccc(Cc2nccc3cc(OC)c(OC)cc23)cc1OC` [Papaverine], for which, in the data set with male Wistar rats [1] (2 mg/kg, i.v.), the “Δ AP DIASTOLIC” value is listed as -18 ± 3 mmHg, the “Δ AP SYSTOLIC” value was -23 ± 3 mmHg, the “Δ HR” value is recorded as -21 ± 5 beats/min and the Δ dp/dt was -604 ± 102 mmHg/sec. Moreover, in the data set with male Wistar rats [1], the “general effects on the various haemodynamic parameters (in words)” value is “general "depressive" effects”.

`COc1ccc(C=CC(=O)NCCCCNC(=N)N)cc1OC` [guanido-V, 4-[(3,4-dimethoxycinnamoyl)amino]butylguanldine]: the “Δ AP DIAST” value in the data set on male Wistar rats [3] (200 μg/kg i.v.) is given as 0 mmHg; with male Wistar rats [3] (400 μg/kg i.v.) it was -3 ± 1 mmHg; with male Wistar rats [3] (800 μg/kg i.v.) it was -6 ± 2 mmHg; with male Wistar rats [3] (1600 μg/kg i.v.), -6 ± 2 mmHg; in the data set with male Wistar rats [3] (3200 μg/kg i.v.), -9 ± 3 mmHg; in the data set on male Wistar rats [3] (6400 μg/kg i.v.), -15 ± 4 mmHg. In addition, the “Δ AP DIAST” value in the data set with male Wistar rats [3] (12800 μg/kg i.v.) is on record as -28 ± 4 mmHg; in the data set on male Wistar rats [3] (102400 μg/kg i.v.), -30 ± 5 mmHg. Besides, the “Δ AP SYST” value in the data set with male Wistar rats [3] (200 μg/kg i.v.) is reported as 0 mmHg; with male Wistar rats [3] (400 μg/kg i.v.), -4 ± 2 mmHg; in the data set with male Wistar rats [3] (800 μg/kg i.v.), -5 ± 2 mmHg; with male Wistar rats [3] (1600 μg/kg i.v.), -8 ± 3 mmHg; with male Wistar rats [3] (3200 μg/kg i.v.) it was -10 ± 4 mmHg; in the data set on male Wistar rats [3] (6400 μg/kg i.v.) it was -11 ± 3 mmHg. The “Δ AP SYST” value is -23 ± 5 mmHg with male Wistar rats [3] (12800 μg/kg i.v.) and -24 ± 4 mmHg in the data set on male Wistar rats [3] (102400 μg/kg i.v.). The “Δ HR” value is listed as 0 beats/min in the data set with male Wistar rats [3] (200 μg/kg i.v.); 0 beats/min in the data set on male Wistar rats [3] (400 μg/kg i.v.); 0 beats/min in the data set with male Wistar rats [3] (800 μg/kg i.v.); 0 beats/min in the data set with male Wistar rats [3] (1600 μg/kg i.v.); 0 beats/min in the data set with male Wistar rats [3] (3200 μg/kg i.v.); -14 ± 6 beats/min in the data set on male Wistar rats [3] (6400 μg/kg i.v.). Also, the “Δ HR” value was -49 ± 8 beats/min with male Wistar rats [3] (12800 μg/kg i.v.) and -67 ± 11 beats/min in the data set on male Wistar rats [3] (102400 μg/kg i.v.). Moreover, the “Δ RF” value with male Wistar rats [3] (200 μg/kg i.v.) is -7 ± 2%; in the data set on male Wistar rats [3] (400 μg/kg i.v.), -3%; in the data set on male Wistar rats [3] (800 μg/kg i.v.), -3 ± 2%; in the data set with male Wistar rats [3] (1600 μg/kg i.v.) it was -4 ± 1%; in the data set on male Wistar rats [3] (3200 μg/kg i.v.) it was “+1 ± 1%”; with male Wistar rats [3] (6400 μg/kg i.v.), “+10 ± 4%”. Also, the “Δ RF” value in the data set on male Wistar rats [3] (12800 μg/kg i.v.) is “+11 ± 3%”; in the data set with male Wistar rats [3] (102400 μg/kg i.v.), “+6 ± 4%”. Also, the “Δ TV” value in the data set on male Wistar rats [3] (200 μg/kg i.v.) is on record as -14 ± 4%; in the data set with male Wistar rats [3] (400 μg/kg i.v.), -13 ± 2%; in the data set with male Wistar rats [3] (800 μg/kg i.v.) it was “+12 ± 4%”; with male Wistar rats [3] (1600 μg/kg i.v.) it was “+11 ± 3%”; with male Wistar rats [3] (3200 μg/kg i.v.), “+20 ± 6%”; with male Wistar rats [3] (6400 μg/kg i.v.), “+22 ± 7%”. Besides, the “Δ TV” value with male Wistar rats [3] (12800 μg/kg i.v.) is “+74 ± 8%”; in the data set on male Wistar rats [3] (102400 μg/kg i.v.), “+79 ± 12%”. The Δ dp/dt is reported as -392 ± 21 mmHg/sec in the data set on male Wistar rats [3] (200 μg/kg i.v.); -384 ± 39 mmHg/sec with male Wistar rats [3] (400 μg/kg i.v.); -430 ± 43 mmHg/sec in the data set with male Wistar rats [3] (800 μg/kg i.v.); -642 ± 76 mmHg/sec in the data set with male Wistar rats [3] (1600 μg/kg i.v.); “+684 ± 38 mmHg/sec” in the data set with male Wistar rats [3] (3200 μg/kg i.v.); “+2354 ± 214 mmHg/sec” in the data set with male Wistar rats [3] (6400 μg/kg i.v.). Also, the values for the Δ dp/dt entry in the data set on male Wistar rats [3] (12800 μg/kg i.v.) and in the data set on male Wistar rats [3] (102400 μg/kg i.v.) were “+2996 ± 170 mmHg/sec” and “+3040 ± 224 mmHg/sec”, respectively. In the data set with male Wistar rats [3] (i.v., rat), the “cardiovascular and respiratory effects (in words)” value is “systolic and diastolic arterial hypotension, more evident from the dose of 3,200 μg/kg on; bradycardia was observed starting from the dose of 6,400 μg/kg, a slight reduction of dp/dt and RF appeared up to the highest doses; TV showed a similar trend”.
